Source: article PMC7347570, “A new functional JAZ degron sequence in strawberry JAZ1 revealed by structural and interaction studies on the COI1–JA-Ile/COR–JAZs complexes” (Scientific Reports, 2020)

Key:
Test in all cases: yeast two-hybrid (GAL4), COR-dependent growth
Type in all cases: cell-based
FaCOI1–FaJAZ10 = molecular target: T1, FaCOI1–FaJAZ10 (Fragaria x ananassa, UniProt A0A290U3W5+A0A290U478); details: 50 µM COR; 28 °C, 5 days; SD-Leu-Trp-His selection; JAZ co-receptor
T1 construct: gene COI1; Saccharomyces cerevisiae AH109; degron LPIARR

FaCOI1–FaJAZ1 = molecular target: T2, FaCOI1–FaJAZ1 (Fragaria x ananassa, UniProt A0A290U0M9+A0A290U3W5); details: 50 µM COR; 28 °C, 5 days; growth on SD-Leu-Trp-His and SD-Leu-Trp-His-Ade; JAZ co-receptor
T2 construct: gene COI1; Saccharomyces cerevisiae AH109; native degron IPMQRK

AtJAZ9 and FaCOI1 = molecular target: T3, AtJAZ9 and FaCOI1 (Fragaria x ananassa; Arabidopsis thaliana, UniProt A0A290U3W5+Q8W4J8); details: 50 µM COR; 28 °C, 5 days; JAZ co-receptor
T3 construct: gene COI1; mixed-species complex; Saccharomyces cerevisiae AH109

AtCOI1 with AtJAZ9 = molecular target: T4, AtCOI1 with AtJAZ9 (Arabidopsis thaliana, UniProt O04197+Q8W4J8); details: 50 µM COR; 28 °C, 5 days; JAZ co-receptor
T4 construct: gene COI1; Saccharomyces cerevisiae AH109; degron VPQARK

AtCOI1–FaJAZ10 = molecular target: T5, AtCOI1–FaJAZ10 (Arabidopsis thaliana; Fragaria x ananassa, UniProt A0A290U478+O04197); details: 50 µM COR; 28 °C, 5 days; JAZ co-receptor
T5 construct: gene COI1; mixed-species complex; Saccharomyces cerevisiae AH109

AtCOI1–FaJAZ1 = molecular target: T6, AtCOI1–FaJAZ1 (Arabidopsis thaliana; Fragaria x ananassa, UniProt A0A290U0M9+O04197); details: 50 µM COR; 28 °C, 5 days; JAZ co-receptor
T6 construct: gene COI1; mixed-species complex; Saccharomyces cerevisiae AH109

AtCOI1 with AtJAZ1 = molecular target: T7, AtCOI1 with AtJAZ1 (Arabidopsis thaliana, UniProt O04197+Q9LMA8); details: 50 µM COR; 28 °C, 5 days; JAZ co-receptor
T7 construct: gene COI1; Saccharomyces cerevisiae AH109; degron LPIARR
T7 sequence (Q9LMA8 whole entry): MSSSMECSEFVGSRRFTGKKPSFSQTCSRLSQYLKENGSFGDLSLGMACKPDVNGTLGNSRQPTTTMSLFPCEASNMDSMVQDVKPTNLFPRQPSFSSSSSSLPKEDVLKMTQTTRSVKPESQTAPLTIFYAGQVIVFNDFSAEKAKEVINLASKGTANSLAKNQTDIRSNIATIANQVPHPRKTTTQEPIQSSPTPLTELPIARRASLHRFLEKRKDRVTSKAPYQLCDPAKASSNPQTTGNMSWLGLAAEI
T7 sequence (O04197 whole entry): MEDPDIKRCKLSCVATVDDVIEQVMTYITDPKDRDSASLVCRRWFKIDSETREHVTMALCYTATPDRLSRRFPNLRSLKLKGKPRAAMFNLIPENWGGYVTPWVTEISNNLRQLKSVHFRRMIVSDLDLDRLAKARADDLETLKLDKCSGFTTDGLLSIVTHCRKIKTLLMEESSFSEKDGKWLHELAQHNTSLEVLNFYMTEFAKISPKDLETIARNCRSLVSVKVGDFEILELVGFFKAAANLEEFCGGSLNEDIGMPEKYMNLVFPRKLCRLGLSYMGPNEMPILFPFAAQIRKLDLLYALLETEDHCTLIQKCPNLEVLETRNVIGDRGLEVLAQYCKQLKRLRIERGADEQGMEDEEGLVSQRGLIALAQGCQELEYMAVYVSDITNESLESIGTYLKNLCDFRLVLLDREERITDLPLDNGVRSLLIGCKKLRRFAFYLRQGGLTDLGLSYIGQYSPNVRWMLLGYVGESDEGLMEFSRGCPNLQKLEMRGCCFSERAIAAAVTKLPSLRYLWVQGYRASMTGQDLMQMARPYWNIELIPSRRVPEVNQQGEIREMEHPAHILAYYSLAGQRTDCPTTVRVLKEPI

T1 sequence (A0A290U3W5 entry or part of it): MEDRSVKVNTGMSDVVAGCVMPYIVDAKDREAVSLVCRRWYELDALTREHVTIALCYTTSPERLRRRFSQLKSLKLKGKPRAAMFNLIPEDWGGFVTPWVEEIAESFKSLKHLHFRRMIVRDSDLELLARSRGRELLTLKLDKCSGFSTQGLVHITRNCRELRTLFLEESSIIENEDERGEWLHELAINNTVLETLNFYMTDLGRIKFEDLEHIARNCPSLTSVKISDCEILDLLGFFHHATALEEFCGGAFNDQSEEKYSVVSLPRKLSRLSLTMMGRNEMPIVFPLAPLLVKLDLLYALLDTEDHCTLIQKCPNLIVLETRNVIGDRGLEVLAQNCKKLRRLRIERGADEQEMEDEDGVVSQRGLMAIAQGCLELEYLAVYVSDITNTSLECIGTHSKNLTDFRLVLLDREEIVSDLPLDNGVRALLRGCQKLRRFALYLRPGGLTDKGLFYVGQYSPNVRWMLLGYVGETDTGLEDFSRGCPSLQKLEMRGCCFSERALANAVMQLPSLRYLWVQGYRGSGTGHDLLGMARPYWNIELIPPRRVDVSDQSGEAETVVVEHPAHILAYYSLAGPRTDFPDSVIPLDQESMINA
T1 sequence (A0A290U478 entry or part of it): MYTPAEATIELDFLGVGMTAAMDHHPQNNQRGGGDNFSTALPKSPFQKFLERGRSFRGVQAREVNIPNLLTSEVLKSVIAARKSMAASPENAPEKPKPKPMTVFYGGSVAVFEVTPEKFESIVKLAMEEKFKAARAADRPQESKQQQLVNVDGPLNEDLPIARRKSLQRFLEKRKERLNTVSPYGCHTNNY
T5 sequence (O04197 whole entry): as the sequence (O04197 whole entry) above
T5 sequence (A0A290U478 entry or part of it): as the sequence (A0A290U478 entry or part of it) above
T4 sequence (O04197 whole entry): as the sequence (O04197 whole entry) above
T4 sequence (Q8W4J8 whole entry): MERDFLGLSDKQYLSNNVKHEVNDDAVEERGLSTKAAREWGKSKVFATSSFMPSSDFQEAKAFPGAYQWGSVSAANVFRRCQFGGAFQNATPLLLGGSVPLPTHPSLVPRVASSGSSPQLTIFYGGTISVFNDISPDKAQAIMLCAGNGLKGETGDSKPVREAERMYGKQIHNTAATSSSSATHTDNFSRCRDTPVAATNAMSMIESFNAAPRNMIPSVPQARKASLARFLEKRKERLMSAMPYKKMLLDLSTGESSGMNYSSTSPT
T3 sequence (Q8W4J8 whole entry): as above
T3 sequence (A0A290U3W5 entry or part of it): as the sequence (A0A290U3W5 entry or part of it) above
T2 sequence (A0A290U0M9 entry or part of it): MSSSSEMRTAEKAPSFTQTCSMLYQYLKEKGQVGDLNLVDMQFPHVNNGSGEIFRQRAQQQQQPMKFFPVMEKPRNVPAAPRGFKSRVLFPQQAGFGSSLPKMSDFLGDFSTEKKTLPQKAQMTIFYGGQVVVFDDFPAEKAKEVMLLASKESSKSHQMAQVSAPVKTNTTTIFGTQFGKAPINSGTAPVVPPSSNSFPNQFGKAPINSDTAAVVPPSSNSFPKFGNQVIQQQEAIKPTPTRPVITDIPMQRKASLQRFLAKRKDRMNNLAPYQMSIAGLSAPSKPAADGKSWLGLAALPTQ
T2 sequence (A0A290U3W5 entry or part of it): as the sequence (A0A290U3W5 entry or part of it) above
T6 sequence (A0A290U0M9 entry or part of it): as the sequence (A0A290U0M9 entry or part of it) above
T6 sequence (O04197 whole entry): as the sequence (O04197 whole entry) above

CC[C@H]1C=C(C(=O)N[C@@]2(C(=O)O)C[C@@H]2CC)[C@H]2CCC(=O)[C@H]2C1 [coronatine]
yeast two-hybrid (GAL4), COR-dependent growth (FaCOI1–FaJAZ10): FaJAZ1 and FaJAZ10 interacted with FaCOI1 in a COR-dependent manner
yeast two-hybrid (GAL4), COR-dependent growth (FaCOI1–FaJAZ1): FaJAZ1 and FaJAZ10 interacted with FaCOI1 in a COR-dependent manner
yeast two-hybrid (GAL4), COR-dependent growth (AtJAZ9 and FaCOI1): only a positive interaction between AtJAZ9 and FaCOI1 promoted by COR was observed
yeast two-hybrid (GAL4), COR-dependent growth (AtCOI1 with AtJAZ9): AtJAZ1 and AtJAZ9 interacted with AtCOI1 which was observed by colony growth
yeast two-hybrid (GAL4), COR-dependent growth (AtCOI1–FaJAZ10): both FaJAZ1 and FaJAZ10 interacted with AtCOI1 in restrictive media and supplemented with COR
yeast two-hybrid (GAL4), COR-dependent growth (AtCOI1–FaJAZ1): both FaJAZ1 and FaJAZ10 interacted with AtCOI1 in restrictive media and supplemented with COR
yeast two-hybrid (GAL4), COR-dependent growth (AtCOI1 with AtJAZ1): AtJAZ1 and AtJAZ9 interacted with AtCOI1 which was observed by colony growth
